According to US12655116B2, “Substituted isophthalic acid diamides” (Bayer Aktiengesellschaft, priority 2020, dated 2026):

Assays:
SETVI [1] = test: Post-emergence herbicidal action against SETVI; assay type: in vivo, Setaria viridis
Outline: (§1)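 Greenhouse pot plants in sandy loam were sprayed at the one-leaf stage, 2 to 3 weeks after sowing, with WP or EC formulations as aqueous suspension or emulsion (600 to 800 l/ha water, 0.2% wetting agent). About 3 weeks later, damage was scored visually against untreated controls as % action (100% = dead, 0% = like control).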

SETVI [2] = test: Pre-emergence herbicidal action against SETVI; assay type: in vivo, Setaria viridis
Outline: (§2)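 Visual rating at 3 weeks vs untreated pots; 0–100% scale, 100% = plants died. Treatment: aqueous WP/EC spray onto covering soil, 600–800 l/ha, 0.2% wetter, seeds in sandy loam.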

LOLRI = test: Pre-emergence herbicidal action against LOLRI; assay type: in vivo, Lolium rigidum; conditions: 80 g/ha
Outline: as §2

ABUTH [3] = test: Post-emergence herbicidal action against ABUTH; assay type: in vivo, Abutilon theophrasti; conditions: Abutilon theophrasti, 504 h, visual assessment about 3 weeks after treatment vs untreated controls
Outline: as §1

VERPE [4] = test: Post-emergence herbicidal action against VERPE; assay type: in vivo, Veronica persica; conditions: 20 g/ha
Outline: as §1

ECHCG [5] = test: Pre-emergence herbicidal action against ECHCG; assay type: in vivo, Echinochloa crus-galli; conditions: 80 g/ha
Outline: as §2

VIOTR [6] = test: Pre-emergence herbicidal action against VIOTR; assay type: in vivo, Viola tricolor
Outline: as §2

MATIN [7] = test: Pre-emergence herbicidal action against MATIN; assay type: in vivo, Matricaria inodora
Outline: as §2

AVEFA = test: Pre-emergence herbicidal action against AVEFA; assay type: in vivo, Avena fatua
Outline: as §2

VIOTR [8] = test: Post-emergence herbicidal action against VIOTR; assay type: in vivo, Viola tricolor
Outline: as §1

AMARE [9] = test: Pre-emergence herbicidal action against AMARE; assay type: in vivo, Amaranthus retroflexus
Outline: as §2

DIGSA [10] = test: Pre-emergence herbicidal action against DIGSA; assay type: in vivo, Digitaria sanguinalis
Outline: as §2

AMARE [11] = test: Post-emergence herbicidal action against AMARE; assay type: in vivo, Amaranthus retroflexus; conditions: 20 g/ha, visual assessment about 3 weeks after treatment, 100% = plants have died, 0% = like control plants
Outline: as §1

PHBPU [12] = test: Pre-emergence herbicidal action against PHBPU; assay type: in vivo, Pharbitis purpurea; conditions: dosage 80 g/ha
Outline: as §2

ALOMY [13] = test: Post-emergence herbicidal action against ALOMY; assay type: in vivo, Alopecurus myosuroides; conditions: Alopecurus myosuroides, 504 h, visual assessment about 3 weeks after treatment vs untreated controls
Outline: as §1

VERPE [14] = test: Pre-emergence herbicidal action against VERPE; assay type: in vivo, Veronica persica; conditions: Veronica persica, 504 h, dosage 80 g/ha
Outline: as §2

ALOMY [15] = test: Pre-emergence herbicidal action against ALOMY; assay type: in vivo, Alopecurus myosuroides
Outline: as §2

MATIN [16] = test: Post-emergence herbicidal action against MATIN; assay type: in vivo, Matricaria inodora; conditions: Tripleurospermum inodorum, 504 h
Outline: as §1

ABUTH [17] = test: Pre-emergence herbicidal action against ABUTH; assay type: in vivo, Abutilon theophrasti
Outline: as §2

ECHCG [18] = test: Post-emergence herbicidal action against ECHCG; assay type: in vivo, Echinochloa crus-galli; conditions: dosage 20 g/ha
Outline: as §1

DIGSA [19] = test: Post-emergence herbicidal action against DIGSA; assay type: in vivo, Digitaria sanguinalis; conditions: 20 g/ha
Outline: as §1

PHBPU [20] = test: Post-emergence herbicidal action against PHBPU; assay type: in vivo, Pharbitis purpurea
Outline: as §1

[21] = Setaria viridis, 504 h, dosage 20 g/ha
[22] = 20 g/ha, scored visually after 3 weeks, 100% = plants have died, 0% = like control plants
[23] = 80 g/ha, scored visually after 3 weeks vs untreated controls (100% = plants have died, 0% = like control plants)

CCn1nnnc1NC(=O)c1ccc(Br)c(C(=O)NC)c1Cl [Example 2-177]
pest or weed control at 5 g/ha (SETVI [1]; Setaria viridis, 504 h, dosage 5 g/ha): 90%
pest or weed control at 20 g/ha (SETVI [1]; [21]): 90%
pest or weed control at 20 g/ha (SETVI [2]; [21]): 100%
pest or weed control at 80 g/ha (SETVI [2]; Setaria viridis, 504 h, dosage 80 g/ha): 100%
pest or weed control at 80 g/ha (LOLRI; Lolium rigidum, 504 h): 90%
pest or weed control at 5 g/ha (ABUTH [3]; dosage 5 g/ha): 80%
pest or weed control at 20 g/ha (ABUTH [3]; dosage 20 g/ha): 90%
pest or weed control at 20 g/ha (VERPE [4]; Veronica persica, 504 h): 80%
pest or weed control at 80 g/ha (ECHCG [5]; Echinochloa crus-galli, 504 h): 90%
pest or weed control at 20 g/ha (VIOTR [6]; Viola tricolor, 504 h, dosage 20 g/ha): 100%
pest or weed control at 80 g/ha (VIOTR [6]; Viola tricolor, 504 h, dosage 80 g/ha): 100%
pest or weed control at 20 g/ha (MATIN [7]; Tripleurospermum inodorum, 504 h, dosage 20 g/ha): 90%
pest or weed control at 80 g/ha (MATIN [7]; Tripleurospermum inodorum, 504 h, dosage 80 g/ha): 100%
pest or weed control at 80 g/ha (AVEFA; Avena fatua, 504 h, 80 g/ha, pre-emergence): 90%
pest or weed control at 5 g/ha (VIOTR [8]; Viola tricolor, 504 h, 5 g/ha): 80%
pest or weed control at 20 g/ha (VIOTR [8]; Viola tricolor, 504 h, 20 g/ha): 100%
pest or weed control at 20 g/ha (AMARE [9]; Amaranthus retroflexus, 504 h, 20 g/ha, scored visually after 3 weeks vs untreated controls, 100% = plants have died, 0% = like control plants): 100%
pest or weed control at 80 g/ha (AMARE [9]; Amaranthus retroflexus, 504 h, 80 g/ha, scored visually after 3 weeks vs untreated controls, 100% = plants have died, 0% = like control plants): 100%
pest or weed control at 20 g/ha (DIGSA [10]; Digitaria sanguinalis, 504 h, dosage 20 g/ha): 100%
pest or weed control at 80 g/ha (DIGSA [10]; Digitaria sanguinalis, 504 h, dosage 80 g/ha): 100%
pest or weed control at 20 g/ha (AMARE [11]; Amaranthus retroflexus, 504 h): 100%
pest or weed control at 80 g/ha (PHBPU [12]; Ipomoea purpurea, 504 h): 80%
pest or weed control at 5 g/ha (ALOMY [13]; dosage 5 g/ha): 80%
pest or weed control at 20 g/ha (ALOMY [13]; dosage 20 g/ha): 100%
pest or weed control at 80 g/ha (VERPE [14]): 80%
pest or weed control at 80 g/ha (ALOMY [15]; Alopecurus myosuroides, 504 h, 80 g/ha, pre-emergence, scored visually after 3 weeks vs untreated controls (100% = plants have died, 0% = like control plants)): 100%
pest or weed control at 20 g/ha (ALOMY [15]; Alopecurus myosuroides, pre-emergence, 504 h, 20 g/ha, scored visually after 3 weeks, 100% = plants have died, 0% = like control plants): 90%
pest or weed control at 5 g/ha (MATIN [16]; dosage 5 g/ha): 90%
pest or weed control at 20 g/ha (MATIN [16]; dosage 20 g/ha): 90%
pest or weed control at 80 g/ha (ABUTH [17]; Abutilon theophrasti, 504 h, 80 g/ha, scored visually after 3 weeks vs untreated controls (100% = plants have died, 0% = like control plants)): 100%
pest or weed control at 20 g/ha (ABUTH [17]; Abutilon theophrasti, 504 h, dosage 20 g/ha, scored visually after 3 weeks vs untreated controls, 100% = plants have died, 0% = like control plants, read-out: Pre-emergence action against ABUTH (herbicidal activity in percent)): 90%

Cn1nnnc1NC(=O)c1ccc(C(F)(F)F)c(C(=O)NCC(F)F)c1Cl [Example 1-134]
Post-emergence action against SETVI in % (SETVI [1]; dosage 5 g/ha): 90%
Post-emergence action against SETVI in % (SETVI [1]; dosage 20 g/ha): 90%
Pre-emergence action against SETVI in % (SETVI [2]; dosage 20 g/ha): 90%
Pre-emergence action against SETVI in % (SETVI [2]; dosage 80 g/ha): 100%
Pre-emergence action against LOLRI in % (LOLRI): 80%
Post-emergence action against VERPE in % (VERPE [4]): 80%
Pre-emergence action against ECHCG in % (ECHCG [5]): 100%
Pre-emergence action against VIOTR in % (VIOTR [6]; dosage 20 g/ha): 90%
Pre-emergence action against VIOTR in % (VIOTR [6]; dosage 80 g/ha): 100%
Pre-emergence action against MATIN in % (MATIN [7]; dosage 20 g/ha): 90%
Pre-emergence action against MATIN in % (MATIN [7]; dosage 80 g/ha): 100%
Pre-emergence action against AVEFA (AVEFA; [22]): 80%
Pre-emergence action against AVEFA in % (AVEFA; 80 g/ha, pre-emergence): 90%
Post-emergence action against ECHCG in % (ECHCG [18]): 90%
Post-emergence action against VIOTR in % (VIOTR [8]; 5 g/ha): 90%
Post-emergence action against VIOTR in % (VIOTR [8]; 20 g/ha): 90%
Pre-emergence action against AMARE in % (AMARE [9]; 20 g/ha, scored visually after 3 weeks vs untreated controls, 100% = plants have died, 0% = like control plants): 100%
Pre-emergence action against AMARE in % (AMARE [9]; [23]): 100%
Pre-emergence action against DIGSA in % (DIGSA [10]; dosage 20 g/ha): 90%
Pre-emergence action against DIGSA in % (DIGSA [10]; dosage 80 g/ha): 100%
Post-emergence action at 20 g/ha against AMARE in % (AMARE [11]): 90%
Pre-emergence action against PHBPU in % (PHBPU [12]): 80%
Post-emergence action against DIGSA (DIGSA [19]): 90%
Post-emergence action against PHBPU in % (PHBPU [20]; dosage 5 g/ha): 80%
Post-emergence action against PHBPU in % (PHBPU [20]; dosage 20 g/ha): 90%
Pre-emergence action against ALOMY (ALOMY [15]; [22]): 80%
Pre-emergence action against ALOMY (herbicidal activity) (ALOMY [15]; 80 g/ha, pre-emergence, scored visually after 3 weeks vs untreated controls (100% = plants have died, 0% = like control plants)): 100%
Pre-emergence action against ABUTH (herbicidal activity) (ABUTH [17]; [23]): 90%
